System: T1, oFluc
T1 construct: gene firefly luciferase; not fused to Venus
Test: luminescence intensity, luminometer, Michaelis-Menten fit
Type: biochemical, Pyrocoelia matsumurai
Conditions: 0.1 M citric acid/0.1 M Na2HPO4 pH 7.0, 1 mM ATP, 2 mM MgSO4, D-luciferin 0-990 µM; partially purified enzyme
Procedure: luminescence intensity, luminometer, Michaelis-Menten fit on oFluc | Km for oFluc or Venus/Akaluc for D-luciferin or AkaLumine were determined

## O=C(O)[C@H]1CSC(c2nc3ccc(O)cc3s2)=N1 [D-luciferin]
  Km: 31.9 µM

— paper PMC10533401, “Development of two mouse strains conditionally expressing bright luciferases with distinct emission spectra as new tools for in vivo imaging” (Lab Animal, 2023)
